No end group written: not given here.
What was measured:
Type in all cases: cell-based
[1] = tested on: cardiomyocytes from the neonatal rat; assay: Effect of inhibitors on DCMAG-1 translocation in the immunofluorescence test; details: cells stimulated with LIF; for % dotted pattern / % filamentous pattern / % in Z-bands: ISO and ET-1 (single dosage) 48 h, without or with 30 μM LY294002, 50 μM SB 203580, 15 nM Go 6976, 50 μM PD98059, ±SEM; for effect on translocation of DCMAG-1 into the sarcomere (in words): ISO and ET-1
Procedure: Neonatal rat cardiomyocytes were prepared as in Example 3 and seeded in a density of 1×10^5 cells per 1.5 cm well (reaction chamber in a cell culture dish). The cell culture dishes contained 1.5 cm cover glasses (Schubert und Weiβ) coated with 1% gelatin solution. The cells were incubated after 24 hours with DMEM and subsequently in maintenance medium with or without stimulus (LIF/ISO and ET-1, concentration as above for single dosage) for 48 hours.
In order to determine the signal transduction pathways required for translocation of DCMAG-1, the stimulated cells were incubated with inhibitors, namely 30 μM LY294002 (Sigma), 50 μM SB 203580 (Sigma), 15 nM Go 6976 (Alexis) or 50 μM PD98059 (NEB) for 48 h (after 24 h, the medium and inhibitors were renewed because the activity of the inhibitors was limited to 24 h in aqueous solution).
After 48 h, the cells were fixed with 4% paraformaldehyde, permeabilized with 0.2% Triton-X100 and stained with anti-DCMAG (polyclonal, own production, 1:500) or α-actinin (as control, Sigma, 1:500) and visualized with anti-mouse or anti-rabbit Cy3 (Jackson Labs, USA) in immunofluorescence. In order to measure the effect of the inhibitors, the cells were visually classified and counted.

[2] = tested on: neonatal rat cardiomyocytes; assay: Stimulation of neonatal cardiomyocytes by phorbol ester, DCMAG-1 localization visually classified and counted; details: for % dotted pattern / % filamentous pattern / % in the sarcomere: 48 hours, ±SEM
Procedure: In these experiments, the cardiomyocytes were prepared as described above and seeded onto cover glasses. Stimulation with various concentrations of PMA was carried out for 48 hours, and the cells were fixed, stained as described above and investigated for DCMAG-1 translocation. The cells were visually classified and counted.

Rat cardiomyocytes = assay: Localization of DCMAG-1 after PMA or triple stimulation (colocalization with α-actinin / MHC); details: double staining with α-actinin or MHC
Procedure: Since PMA brings about translocation of DCMAG-1 into the sarcomeres just like activation of three signal transduction pathways via their receptors, the sarcomeric structures into which DCMAG-1 was translocated with PMA or triple stimulation was investigated. Colocalization experiments were carried out for this purpose. Rat cardiomyocytes were seeded as described above on cover glasses, and correspondingly stimulated, fixed and stained. With the stains, anti-DCMAG-1 antibody (polyclonal) was mixed with either monoclonal α-actinin (Sigma, 1:500) or monoclonal anti-myosin (heavy chain, MHC, Sigma, 1:500). The secondary antibodies used were FITC-anti-mouse (1:250) and Texas Red-anti-rabbit (1:50; both from Dianova).
Evaluation took place with the aid of a fluorescence microscope, a Fuji-CCD camera and Aida software or with the aid of a confocal microscope (Pascal from Zeiss) and LSM software (Zeiss).

[3] = tested on: neonatal rat cardiomyocytes; assay: Stimulation of isolated neonatal rat cardiomyocytes, recruitment of DCMAG-1 into the sarcomere (immunofluorescence); details: for Sarcomere (recruitment of DCMAG-1), 1 × stimulation: 48 hours; for DCMAG-1 stain pattern of stimulated cells (in words): immunofluorescence, anti-DCMAG-1 antibody
Text: Primary cardiomyocytes were isolated from neonatal rats to carry out a hypertrophy experiment. The rats were from one to seven days old and were sacrificed by cervical dislocation. To isolate the cardiomyocytes, the ventricles of the contracting hearts were removed and dissociated using the “Neonatal Cardiomyocyte Isolation System” (Worthington Biochemicals Corporation, Lakewood, N.J.). […] The next day, the trypsin treatment was stopped by adding a trypsin inhibitor, and then a collagenase treatment was carried out at 37° C. for 45 minutes. The cells were dissociated by pipetting, passed through a “cell strainer” (70 μm) and centrifuged at 60×g twice for 5 min. The cell pellet was then taken up in 20 ml of conventional adhesion medium. Seeding took place at a density of 6×10^4 cells/cm^2 on gelatin-coated (Sigma, Deisenhofen) tissue culture dishes or cover glasses. The next morning, the medium was removed by aspiration and, after washing with DMEM (conventional cell culture medium) twice, replaced by cultivation medium.
The cells were stimulated two to six hours after the medium was changed. This was done by treating the cardiomyocytes with various stimulants or combinations of stimulants (see Table 1) for 48 hours, followed by analysis. It was possible to observe the progress of a single stimulation on the basis of the morphological changes in the cells (hypertrophy). Besides the morphological changes, immunofluorescence analyses were also used to determine hypertrophy parameters (DCMAG-1 recruitment).
For the immunofluorescence analysis, the stimulated cardiomyocytes were washed twice with cold PBS and fixed with 3% paraformaldehyde solution in PBS for 20 minutes. After washing again with cold PBS, the cells were incubated twice with 100 mM ammonium chloride in PBS, for 10 min each time, at room temperature. This was followed by a further washing step with cold PBS and incubation with 0.2% Triton-X 100 in PBS at room temperature for 5 min. Washing twice with 0.1% gelatin in PBS was followed by incubation with the first antibody at 37° C. in a “humidity chamber” known to the skilled worker. The first antibody (against the second domain of DCMAG-1) was diluted 1/500 in incubation solution (0.5% Tween-20; 0.5% BSA; in PBS). This was followed after one hour by three washing steps with PBS at room temperature for 5 min each time. The second antibody (obtained from goat, directed against rabbit, Cy3-coupled; Dianova, Hamburg) was diluted 1/200 in incubation solution and likewise incubated with the fixed cells at 37° C. for one hour. After three further washing steps with PBS at room temperature for 5 min each time, and a brief immersion in deionized water, the preparations were covered with a layer of Histosafe (Linaris, Wertheim-Bettingen) and applied to slides. Evaluation took place under a microscope (Axiovert 100S, Cy3 filter set, Zeiss, Göttingen).
Thus, for quantitative evaluation of these stimulation experiments, the recruitment of DCMAG-1 into the sarcomere was measured and categorized as follows: […]

[4] = single dosage: PE 100 μM, LIF 1 ng/ml, ET-1 10 nM, ISO 10 μM, IN 100 nM

Row | Compound | % dotted pattern [1] [%] | % filamentous pattern [1] [%] | % in Z-bands [1] [%] | Sarcomere (recruitment of DCMAG-1), 1 × stimulation ([3]; 2 × single dosage) | Sarcomere (recruitment of DCMAG-1), 1 × stimulation ([3]; 3 × single dosage) | Sarcomere (recruitment of DCMAG-1), 1 × stimulation ([3]; 4 × single dosage) | Sarcomere (recruitment of DCMAG-1), 1 × stimulation [3, 4] | DCMAG-1 stain pattern of stimulated cells (in words) [3] | further results
1 | C[S+]([O-])c1ccc(-c2nc(-c3ccncc3)c(-c3ccc(F)cc3)[nH]2)cc1 (stereo not drawn) [SB, SB 203580] | 22.5 ± 5.3 | 35.5 ± 0.3 | 41.0 ± 4.9 |  |  |  |  |  | 
2 | CCCCCCCCCCCCCC(=O)O[C@@H]1[C@@H](C)[C@@]2(O)[C@@H](C=C(CO)C[C@]3(O)C(=O)C(C)=C[C@@H]23)[C@@H]2C(C)(C)[C@]12OC(C)=O [PMA, phorbol myristate acetate] |  |  |  |  |  |  |  |  | translocation of DCMAG-1 protein (in words) ([2]; 1 nM PMA): translocated into the sarcomere; % dotted pattern ([2]; 1 nM PMA): 46.0 ± 2.0%; % filamentous pattern ([2]; 1 nM PMA): 20.0 ± 1.0%; % in the sarcomere ([2]; 1 nM PMA): 34.0 ± 3.0%; % dotted pattern ([2]; 100 nM PMA): 47.0 ± 4.0%; % filamentous pattern ([2]; 100 nM PMA): 13.0 ± 2.0%; % in the sarcomere ([2]; 100 nM PMA): 40.0 ± 2.0%; sarcomeric structure into which DCMAG-1 is translocated (Rat cardiomyocytes): translocates into the M-line
3 | CC(C)NCC(O)c1ccc(O)c(O)c1 (stereo not drawn) [ISO, isoproterenol] |  |  |  | (−) (fewer than 2 cells per cover glass) | (+) (2 to 5 cells per cover glass) | (+) (2 to 5 cells per cover glass) | (−) (fewer than 2 cells per cover glass) |  | Sarcomere (recruitment of DCMAG-1), 1 × stimulation ([3]; 5 × single dosage): (+) (2 to 5 cells per cover glass); recruitment of DCMAG-1 into the sarcomere (in words, summary of Table 1) ([3]; ISO: high concentrations): slight effect
4 | ET-1: hormone / signal molecule stimulating the ETA and ETB endothelin receptors (CSCSSLMDKECVYFCHLDIIW; not fully specified (bridges); ends and bridges not checked; UniProt P05305 53-73, looked up) |  |  |  | (−) (fewer than 2 cells per cover glass) | (−) (fewer than 2 cells per cover glass) | (−) (fewer than 2 cells per cover glass) | (−) (fewer than 2 cells per cover glass) | filamentous structures | 
5 | COc1cccc(-c2cc(=O)c3ccccc3o2)c1N [PD, PD98059] | 58.5 ± 10.7 | 31.6 ± 7.4 | 10.1 ± 3.4 |  |  |  |  |  | effect on translocation of DCMAG-1 into the sarcomere (in words) [1]: reducing the translocation
6 | Cn1c2ccccc2c2c3c(c4c5ccccc5n(CCC#N)c4c21)CNC3=O [Gö, Gö 6976] | 29.0 ± 2.1 | 49.0 ± 0.0 | 22.0 ± 2.1 |  |  |  |  |  | effect on translocation of DCMAG-1 into the sarcomere (in words) [1]: reducing the translocation
7 | insulin |  |  |  | (−) (fewer than 2 cells per cover glass) |  |  | (−) (fewer than 2 cells per cover glass) |  | 
8 | LIF: cytokine acting via the LIF receptor, assigned to the interleukin-6 family |  |  |  | (−) (fewer than 2 cells per cover glass) |  |  | (−) (fewer than 2 cells per cover glass) | distributed uniformly over the sarcoplasm | shape of stimulated cells ([3]; single stimulation): elongate shape
9 | CNC[C@H](O)c1cccc(O)c1 [PE, phenylephrine] |  |  |  | (−) (fewer than 2 cells per cover glass) | (−) (fewer than 2 cells per cover glass) | (−) (fewer than 2 cells per cover glass) | (−) (fewer than 2 cells per cover glass) | distributed uniformly over the sarcoplasm | Sarcomere (recruitment of DCMAG-1), 1 × stimulation ([3]; 5 × single dosage): (−) (fewer than 2 cells per cover glass)
10 | O=c1cc(N2CCOCC2)oc2c(-c3ccccc3)cccc12 [LY, LY294002] | 46.6 ± 5.3 | 41.2 ± 4.1 | 11.3 ± 2.0 |  |  |  |  |  | 

Reference: patent US20030170890A1, “Pathologically modified myocardial cell, production and use thereof” (priority 1999, published 2003)
